Reference: ChEMBL document CHEMBL6078703, “Discovery of Novel Thiophene-Based Baloxavir Derivatives as Potent Cap-Dependent Endonuclease Inhibitors for Influenza Treatment” (J Med Chem, 2024)

Assays:
[1] = Cytotoxicity against dog MDCK cells assessed as cell viability measured after 48 hrs by CCK-8 assay; format: toxicity, cell-based, Canis lupus familiaris
Influenza A virus [2] = assay: Antiviral activity against influenza strain A/Aichi/ 2/1968 (H3N2) infected in MDCK cells assessed as reduction of virus-induced cytopathic effect measured after 2 days incubation; format: functional, organism-based; conditions: 48 h
Influenza A virus [3] = assay: Antiviral activity against influenza strain A/WSN/1933 (H1N1) infected in MDCK cells assessed as reduction of virus-induced cytopathic effect measured after 2 days incubation; format: functional, organism-based; conditions: 48 h
[4] = Selectivity index, ratio of CC50 for dog MDCK cells to EC50 for antiviral activity against influenza strain A/WSN/1933 (H1N1) infected in MDCK cells; format: toxicity, cell-based; conditions: read-out: Selectivity Index
[5] = Selectivity index, ratio of CC50 for dog MDCK cells to EC50 for antiviral activity against influenza strain A/Aichi/ 2/1968 (H3N2) infected in MDCK cells; format: toxicity, cell-based; conditions: read-out: Selectivity Index
[6] = Metabolic stability in human liver microsomes assessed as intrinsic clearance measured up to 60 mins by LC-MS/MS analysis; format: ADME, Microsome; conditions: read-out: CLH
[7] = Metabolic stability in mouse liver microsomes assessed as intrinsic clearance measured up to 60 mins by LC-MS/MS analysis; format: ADME, Microsome; conditions: read-out: CLH
[8] = Metabolic stability in mouse liver microsomes assessed as half life measured up to 60 mins by LC-MS/MS analysis; format: ADME, Microsome
[9] = Metabolic stability in human liver microsomes assessed as half life measured up to 60 mins by LC-MS/MS analysis; format: ADME, Microsome

In the case of `O=C1c2c(O)c(=O)ccn2N([C@@H](c2ccccc2)c2cccs2)[C@@H]2COCCN12`, the CC50 at 48 h [1] is reported as > 50000 nM, the EC50 (Influenza A virus [2]) is reported as 21.8 nM and the EC50 (Influenza A virus [3]) is reported as 39.8 nM. The selectivity ratio [4] was > 1260 and the selectivity ratio [5] was > 2300.

`O=C1c2c(O)c(=O)ccn2N([C@@H](c2ccc(Cl)c(Cl)c2)c2cccs2)[C@@H]2COCCN12` gave a CC50 at 48 h [1] of 32600 nM, an EC50 (Influenza A virus [2]) of 60.6 nM and an EC50 (Influenza A virus [3]) of 44.8 nM. For the same compound, the selectivity ratio [4] was 729 and the selectivity ratio [5] was 539.

`Cc1ccc([C@H](c2cccs2)N2[C@@H]3COCCN3C(=O)c3c(O)c(=O)ccn32)cc1C` gave a CC50 at 48 h [1] of 20500 nM, an EC50 (Influenza A virus [2]) of 8.11 nM and an EC50 (Influenza A virus [3]) of 47.8 nM. It also gave a selectivity ratio [4] of 429 and a selectivity ratio [5] of 2530.

Work on `O=C1c2c(O)c(=O)ccn2N([C@H](c2ccc(Cl)c(Cl)c2)c2cccs2)[C@@H]2COCCN12` yielded a CC50 at 48 h [1] of 12100 nM, an EC50 (Influenza A virus [2]) of 13 nM and an EC50 (Influenza A virus [3]) of 56.2 nM. For the same compound, the selectivity ratio [4] was 215 and the selectivity ratio [5] was 931.

For `O=C1c2c(O)c(=O)ccn2N([C@H](c2ccc(Br)c(Br)c2)c2cccs2)[C@@H]2COCCN12`, the CC50 at 48 h [1] was 24900 nM, the EC50 (Influenza A virus [2]) was 17.6 nM and the EC50 (Influenza A virus [3]) was 16.2 nM. The selectivity ratio [4] was 1540 and the selectivity ratio [5] was 1410.

With `O=C1c2c(O)c(=O)ccn2N([C@H](c2ccc(F)c(F)c2)c2ccc(Br)s2)[C@@H]2COCCN12` the CC50 at 48 h [1] was 17300 nM, the EC50 (Influenza A virus [2]) was 28.3 nM and the EC50 (Influenza A virus [3]) was 49.1 nM. The selectivity ratio [4] was 353 and the selectivity ratio [5] was 613.

With `O=C1c2c(O)c(=O)ccn2N([C@H](c2ccc(F)c(F)c2)c2ccc(-c3ccccc3)s2)[C@@H]2COCCN12` the CC50 at 48 h [1] was 48500 nM, the EC50 (Influenza A virus [2]) was 3.75 nM and the EC50 (Influenza A virus [3]) was 20.4 nM. The selectivity ratio [4] was 2380 and the selectivity ratio [5] was 12900.

`O=C1c2c(O)c(=O)ccn2N([C@H](c2ccc3ccccc3c2)c2cccs2)[C@@H]2COCCN12` showed a CC50 at 48 h [1] of 17200 nM, an EC50 (Influenza A virus [2]) of 76.3 nM and an EC50 (Influenza A virus [3]) of 22.8 nM. For the same compound, the selectivity ratio [4] was 752.

For `O=C1c2c(O)c(=O)ccn2N([C@@H](c2ccc3ccccc3c2)c2cccs2)[C@@H]2COCCN12`, the CC50 at 48 h [1] was 40600 nM, the EC50 (Influenza A virus [2]) was 53.6 nM and the EC50 (Influenza A virus [3]) was 42.3 nM. The selectivity ratio [4] was 960 and the selectivity ratio [5] was 758.

With `O=C1c2c(O)c(=O)ccn2N([C@@H](c2ccc(Br)c(Br)c2)c2cccs2)[C@@H]2COCCN12` the CC50 at 48 h [1] was > 50000 nM, the EC50 (Influenza A virus [2]) was 6.9 nM and the EC50 (Influenza A virus [3]) was 35.6 nM. The selectivity ratio [4] was > 1400 and the selectivity ratio [5] was > 7250.

Compound `Cc1ccc([C@@H](c2cccs2)N2[C@@H]3COCCN3C(=O)c3c(O)c(=O)ccn32)cc1C` has a CC50 at 48 h [1] of 28000 nM, an EC50 (Influenza A virus [2]) of 1.79 nM and an EC50 (Influenza A virus [3]) of 6.67 nM. It also gave a selectivity ratio [4] of 4190 and a selectivity ratio [5] of 15600.

In the case of `O=C1c2c(O)c(=O)ccn2N([C@H](c2cccs2)c2cc(F)c(F)c(F)c2F)[C@@H]2COCCN12`, the CC50 at 48 h [1] is reported as > 50000 nM, the EC50 (Influenza A virus [2]) is reported as 13.8 nM and the EC50 (Influenza A virus [3]) is reported as 12.4 nM. The selectivity ratio [4] was > 4020 and the selectivity ratio [5] was > 3630.

With `O=C(O)Cc1ccccc1Nc1c(Cl)cccc1Cl` [DICLOFENAC] the CLint scaled [6] was 221 mL/min/kg and the CLint scaled [7] was 136 mL/min/kg.

`O=C1c2c(O)c(=O)ccn2N([C@H](c2ccc(F)c(F)c2)c2ccc(Cl)s2)[C@@H]2COCCN12` gave a CC50 at 48 h [1] of 24100 nM, an EC50 (Influenza A virus [2]) of 30.8 nM and an EC50 (Influenza A virus [3]) of 15.9 nM. The selectivity ratio [4] was 1510 and the selectivity ratio [5] was 783.

In the case of `O=C1c2c(O)c(=O)ccn2N([C@H](c2ccc(F)c(F)c2)c2cc3ccccc3s2)[C@@H]2COCCN12`, the CC50 at 48 h [1] is reported as > 50000 nM, the EC50 (Influenza A virus [2]) is reported as 20.3 nM and the EC50 (Influenza A virus [3]) is reported as 20.9 nM. For the same compound, the selectivity ratio [4] was > 2400 and the selectivity ratio [5] was > 2460.

With `O=C1c2c(O)c(=O)ccn2N([C@@H](c2ccc(F)cc2)c2cccs2)[C@@H]2COCCN12` the CC50 at 48 h [1] was 37600 nM, the CLint scaled [6] was 1.62 mL/min/kg and the half-life [8] was 23.1 h. The EC50 (Influenza A virus [2]) was 1.65 nM, the EC50 (Influenza A virus [3]) was 5.06 nM and the selectivity ratio [4] was 7440. The CLint scaled [7] was 3.96 mL/min/kg, the selectivity ratio [5] was 22800 and the half-life [9] was 12.8 h.

In the case of `O=C1c2c(O)c(=O)ccn2N([C@H](c2cc(F)c(F)c(F)c2)c2cccs2)[C@@H]2COCCN12`, the CC50 at 48 h [1] is reported as 26000 nM, the EC50 (Influenza A virus [2]) is reported as 21.9 nM and the EC50 (Influenza A virus [3]) is reported as 1.91 nM. The selectivity ratio [4] was 13600 and the selectivity ratio [5] was 1190.

`O=C1c2c(O)c(=O)ccn2N([C@H](c2ccc(F)c(F)c2)c2cccs2)[C@@H]2COCCN12` gave a CC50 at 48 h [1] of 25200 nM, a CLint scaled [6] of 4.68 mL/min/kg and a half-life [8] of 7.7 h. For the same compound, the EC50 (Influenza A virus [2]) was 3.08 nM, the EC50 (Influenza A virus [3]) was 8.04 nM and the selectivity ratio [4] was 3140. The CLint scaled [7] was 11.9 mL/min/kg, the selectivity ratio [5] was 8200 and the half-life [9] was 4.45 h.

Work on `O=C1c2c(O)c(=O)ccn2N([C@@H](c2ccc(F)c(F)c2)c2ccc(Cl)s2)[C@@H]2COCCN12` yielded a CC50 at 48 h [1] of 19400 nM, an EC50 (Influenza A virus [2]) of 51.9 nM and an EC50 (Influenza A virus [3]) of 29.2 nM. The selectivity ratio [4] was 663 and the selectivity ratio [5] was 373.

With `O=C1c2c(O)c(=O)ccn2N([C@H](c2cccc(F)c2)c2cccs2)[C@@H]2COCCN12` the CC50 at 48 h [1] was 34300 nM, the EC50 (Influenza A virus [2]) was 26 nM and the EC50 (Influenza A virus [3]) was 3.49 nM. The selectivity ratio [4] was 9840 and the selectivity ratio [5] was 1320.

With `O=C1c2c(O)c(=O)ccn2N([C@H](c2ccc(F)cc2)c2cccs2)[C@@H]2COCCN12` the EC50 (Influenza A virus [3]) was 3.19 nM and the selectivity ratio [4] was 8390.

With `O=C1c2c(O)c(=O)ccn2N([C@@H](c2cccc(F)c2)c2cccs2)[C@@H]2COCCN12` the CC50 at 48 h [1] was > 50000 nM, the EC50 (Influenza A virus [2]) was 15.2 nM and the EC50 (Influenza A virus [3]) was 5.54 nM. For the same compound, the selectivity ratio [4] was > 9020 and the selectivity ratio [5] was > 3290.

With `O=C1c2c(O)c(=O)ccn2N([C@@H](c2ccc(F)c(F)c2)c2cc3ccccc3s2)[C@@H]2COCCN12` the CC50 at 48 h [1] was > 50000 nM, the EC50 (Influenza A virus [2]) was 5.98 nM and the EC50 (Influenza A virus [3]) was 42.4 nM. For the same compound, the selectivity ratio [4] was > 1180 and the selectivity ratio [5] was > 8360.

For `O=C1c2c(O)c(=O)ccn2N([C@@H](c2ccc(F)c(F)c2)c2ccc(-c3ccccc3)s2)[C@@H]2COCCN12`, the CC50 at 48 h [1] was 39800 nM, the EC50 (Influenza A virus [2]) was 11.1 nM and the EC50 (Influenza A virus [3]) was 36.2 nM. The selectivity ratio [4] was 1100 and the selectivity ratio [5] was 3580.

For `O=C1c2c(O)c(=O)ccn2N([C@H](c2ccccc2)c2cccs2)[C@@H]2COCCN12`, the CC50 at 48 h [1] was > 50000 nM, the EC50 (Influenza A virus [2]) was 46.8 nM and the EC50 (Influenza A virus [3]) was 36.4 nM. For the same compound, the selectivity ratio [4] was > 1370 and the selectivity ratio [5] was > 1070.

For `O=C1c2c(O)c(=O)ccn2N([C@@H](c2cc(F)c(F)c(F)c2)c2cccs2)[C@@H]2COCCN12`, the CC50 at 48 h [1] was > 50000 nM, the EC50 (Influenza A virus [2]) was 5.43 nM and the EC50 (Influenza A virus [3]) was 9.34 nM. The selectivity ratio [4] was > 5350 and the selectivity ratio [5] was > 9210.

For `O=C1c2c(O)c(=O)ccn2N([C@@H](c2cccs2)c2cc(F)c(F)c(F)c2F)[C@@H]2COCCN12`, the CC50 at 48 h [1] was > 50000 nM, the EC50 (Influenza A virus [2]) was 7.78 nM and the EC50 (Influenza A virus [3]) was 5.64 nM. For the same compound, the selectivity ratio [4] was > 8860 and the selectivity ratio [5] was > 6430.

`O=C1c2c(O)c(=O)ccn2N([C@@H](c2ccc(F)c(F)c2)c2ccc(Br)s2)[C@@H]2COCCN12` gave a CC50 at 48 h [1] of 19700 nM, an EC50 (Influenza A virus [2]) of 31.6 nM and an EC50 (Influenza A virus [3]) of 30.2 nM. For the same compound, the selectivity ratio [4] was 652 and the selectivity ratio [5] was 623.
